Legend:
MET and VEGFR signaling = assay: suppression of MET and VEGFR signaling
[1] = test system: pancreatic neuroendocrine tumor model; assay: murine pancreatic neuroendocrine tumor model
oral bioavailability = details: in vivo
xenograft tumor models = assay: xenograft tumor models
[2] = test system: endothelial cells and tumor cells; assay: induction of apoptosis
[3] = test system: metastatic castration-resistant prostate cancer (CRPC) with bone metastases; assay: case studies: metastatic CRPC patients treated with Compound 1; assay type: in vivo, human; details: three metastatic CRPC patients
From the text: Bone metastases are present in 90% of patients with castration-resistant prostate cancer (CRPC), causing significant morbidity and mortality.

[4] = gravimetric vapor sorption (GVS) study; assay type: physicochemical; details: 25° C. and 90% humidity
Experimental: A gravimetric vapor sorption (GVS) study was run using a standard procedure. Samples were run on a dynamic vapor sorption analyzer (Surface Measurement Systems) running DVSCFR software. Sample sizes were typically 10 mg. A moisture adsorption desorption isotherm was performed as outlined below. The standard isotherm experiment, performed at 25° C., is a two-cycle run, starting at 40% RH, increasing humidity to 90% RH, decreasing humidity to 0% RH, increasing humidity again to 90% RH, and finally decreasing humidity to 0% RH in 10% RH intervals.

For COc1cc2c(Oc3ccc(NC(=O)C4(C(=O)Nc5ccc(F)cc5)CC4)cc3F)ccnc2cc1OCCCN1CCOCC1 [Compound 1], which “MET and VEGFR signaling” value (MET and VEGFR signaling) is on record?
The value was “suppresses”.

What about the overall survival [1] of the same compound?
The overall survival was “substantially improves”.

And the “tumor invasiveness and metastasis” value [1]?
Its value is “significantly reduces”.

What about the oral bioavailability (oral bioavailability) of the same compound?
The oral bioavailability was “orally bioavailable”.

And the tumor regression (xenograft tumor models)?
Its tumor regression is “causes tumor regression”.

And the “apoptosis of endothelial cells and tumor cells” value [2]?
The value was “rapidly induces apoptosis”.

And the bone lesions [3]?
The bone lesions was “near complete resolution of bone lesions”.

And the bone pain [3]?
The bone pain was “marked reduction”.

And the measurable disease [3]?
Its measurable disease is “reduction in measurable disease”.

What about the “total serum alkaline phosphatase (tALP) levels” value [3] of the same compound?
Its value is “marked reduction”.

With COc1cc2c(Oc3ccc(NC(=O)C4(C(=O)Nc5ccc(F)cc5)CC4)cc3F)ccnc2cc1OCCCN1CCOCC1.O [crystalline Compound 1, N-[3-fluoro-4-({6-(methyloxy)-7-[(3-morpholin-4-ylpropyl)oxy]quinolin-4-yl}oxy)phenyl]-N′-(4-fluorophenyl)cyclopropane-1,1-dicarboxamide crystalline hydrate] as the compound, how does the “weight gain (GVS)” value [4] read?
The value was 2.5%.

— patent publication US20140066444A1, “Method of Treating Cancer” (Exelixis, Inc., priority 2010, published 2014)
